Test results: patent publication US11407719B2, “Anti-inflammatory agents” (Resverlogix Corp., priority 2009, dated 2022)

Tests used:
[1] = test system: VCAM-1 mRNA; assay: Quantification of hVCAM mRNA; assay type: cell-based, human; design: key: Active: an active compound is one that causes a ≥20% inhibition in VCAM-1 mRNA at a concentration less than or equal to 10 μM; -1 mRNA at a concentration less than or equal to 10 μM; settings: VCAM-1 mRNA by real-time PCR; HUVECs, 1 h pretreatment, tumor necrosis factor-α stimulation 24 h; concentration ≤10 μM
How it was run: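 HUVECs were pretreated 1 h with compound, then stimulated with TNF-α and harvested 24 h later. Isolated mRNA went into one-step qRT-PCR. hVCAM Ct values were normalized to an internal control and expressed as fold induction relative to control.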

[2] = test system: hIL-6 mRNA; assay: Quantification of hIL-6 mRNA; assay type: cell-based, human; design: key: Active: an active compound is one that causes a ≥20% inhibition in IL-6 mRNA at a concentration less than or equal to 10 μM; settings: IL-6 mRNA by real-time PCR; differentiated U937 cells, 1 h pretreatment, lipopolysaccharide stimulation 3 h; concentration ≤10 μM
How it was run: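 U937 cells, differentiated for 3 days, were pretreated with compound for 1 h and then stimulated with E. coli LPS for 3 h at 37 °C. IL-6 mRNA was quantified by one-step qRT-PCR, with Ct normalized to an internal control, and fold induction was expressed relative to control.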

Row | SMILES | melting point | Inhibition of VCAM-1 expression [1] | Inhibition of IL-6 expression [2]
1 | COCCOc1cc(OCCN2CCCC2)c2c(=O)[nH]c(-c3cc(C)nc(C)c3)nc2c1 [2-(2,6-Dimethylpyridin-4-yl)-7-(2-methoxyethoxy)-5-(2-(pyrrolidin-1-yl)ethoxy)quinazolin-4(3H)-one] | 60.4 to 62.3 °C | Active | Active
2 | COc1cc(OCCN2CCCC2)c2c(=O)[nH]c(-c3cc(C)nc(C)c3)nc2c1 [2-(2,6-Dimethylpyridin-4-yl)-7-methoxy-5-(2-(pyrrolidin-1-yl)ethoxy)quinazolin-4(3H)-one] | 190 to 191 °C | Active | Active
3 | COc1cc(OCCOc2ccccc2)c2c(=O)[nH]c(-c3cc(C)nc(C)c3)nc2c1 [2-(2,6-Dimethylpyridin-4-yl)-7-methoxy-5-(2-phenoxyethoxy)quinazolin-4(3H)-one] | 172.3 to 173.2 °C | Active | Active
4 | Cc1cc(-c2nc3cc(OCCOC(C)C)cc(OCCOC(C)C)c3c(=O)[nH]2)cc(C)n1 [2-(2,6-dimethylpyridin-4-yl)-5,7-bis(2-isopropoxyethoxy)quinazolin-4(3H)-one] | 124 to 125 °C | Active | Active
5 | Cc1cc(-c2nc3ccc(CN4CCOCC4)cc3c(=O)[nH]2)ccn1 [2-(2-methylpyridin-4-yl)-6-(morpholinomethyl)quinazolin-4(3H)-one] | 267 to 268 °C | Inactive | Active
6 | COc1cc(OC)cc(-c2nc3ccc(Nc4ccncc4)cc3c(=O)[nH]2)c1 [2-(3,5-Dimethoxyphenyl)-6-(pyridin-4-ylamino)quinazolin-4(3H)-one] | 289 to 290 °C | Inactive | Active
7 | COc1cc(OC)c2c(=O)[nH]c(-c3cc(C)c(OCCN4CCN(C)CC4)c(C)c3)nc2c1 [2-(3,5-Dimethyl-4-(2-(4-methylpiperazin-1-yl)ethoxy)phenyl)-5,7-dimethoxyquinazolin-4(3H)-one] | 180 to 182 °C | Active | Active
8 | COc1cc(OC)c2c(=O)[nH]c(-c3cc(C)c(OCCN4CCCC4)c(C)c3)nc2n1 [2-(3,5-Dimethyl-4-(2-(pyrrolidin-1-yl)ethoxy)phenyl)-5,7-dimethoxypyrido[2,3-d]pyrimidin-4(3H)-one] | 228 to 230 °C | Active | Active
9 | COc1cccc2nc(-c3cc(C)c(OCCN4CCCC4)c(C)c3)[nH]c(=O)c12 [2-(3,5-Dimethyl-4-(2-(pyrrolidin-1-yl)ethoxy)phenyl)-5-methoxyquinazolin-4(3H)-one] | 157 to 158 °C | Active | Active
10 | COc1ccc2nc(-c3cc(C)c(OCCN4CCCC4)c(C)c3)[nH]c(=O)c2c1 [2-(3,5-Dimethyl-4-(2-(pyrrolidin-1-yl)ethoxy)phenyl)-6-methoxyquinazolin-4(3H)-one] | 201.2 to 203.1 °C | Active | Active
11 | COc1ccc2c(=O)[nH]c(-c3cc(C)c(OCCN4CCCC4)c(C)c3)nc2c1 [2-(3,5-Dimethyl-4-(2-(pyrrolidin-1-yl)ethoxy)phenyl)-7-methoxyquinazolin-4(3H)-one] | 218 to 220 °C | Active | Active
12 | COc1cccc2c(=O)[nH]c(-c3cc(C)c(OCCN4CCCC4)c(C)c3)nc12 [2-(3,5-Dimethyl-4-(2-(pyrrolidin-1-yl)ethoxy)phenyl)-8-methoxyquinazolin-4(3H)-one] | 231 to 232 °C | Active | Active
13 | COc1cc(OC)c2c(=O)[nH]c(-c3cc(C)c(CCCN4CCCC4)c(C)c3)nc2c1 [2-(3,5-Dimethyl-4-(3-(pyrrolidin-1-yl)propyl)phenyl)-5,7-dimethoxyquinazolin-4(3H)-one] | 194 to 196 °C | Active | Active
14 | COc1cc(OC)c2c(=O)[nH]c(-c3cc(C)c(OCCCCN4CCCC4)c(C)c3)nc2c1 [2-(3,5-Dimethyl-4-(4-(pyrrolidin-1-yl)butoxy)phenyl)-5,7-dimethoxyquinazolin-4(3H)-one] | 180 to 181 °C | Active | Active
15 | COc1cc(OC)c2c(=O)[nH]c(-c3cc(C)cc(OCCO)c3)nc2c1 [2-(3-(2-Hydroxyethoxy)-5-methylphenyl)-5,7-dimethoxyquinazolin-4(3H)-one] | 106.9 to 109.1 °C | Active | Active
16 | COc1cc(OC)c2c(=O)[nH]c(-c3cccc(OCCO)c3)nc2c1 [2-(3-(2-Hydroxyethoxy)phenyl)-5,7-dimethoxyquinazolin-4(3H)-one] | 244.8 to 246 °C | Active | Active
17 | COc1cc(OC)c2c(=O)[nH]c(-c3cc(C)c(OCCn4ccnc4)c(C)c3)nc2c1 [2-(4-(2-(1H-Imidazol-1-yl)ethoxy)-3,5-dimethylphenyl)-5,7-dimethoxyquinazolin-4(3H)-one] | 218 to 219 °C | Active | Active
18 | COc1cc(OC)c2c(=O)[nH]c(-c3cc(C)c(OCCN4CCN(C(C)=O)CC4)c(C)c3)nc2c1 [2-(4-(2-(4-Acetylpiperazin-1-yl)ethoxy)-3,5-dimethylphenyl)-5,7-dimethoxyquinazolin-4(3H)-one] | 213 to 214 °C | Active | Active
19 | COc1cc(OC)c2c(=O)[nH]c(-c3cc(C)c(OCCN4CCCCCC4)c(C)c3)nc2c1 [2-(4-(2-(Azepan-1-yl)ethoxy)-3,5-dimethylphenyl)-5,7-dimethoxyquinazolin-4(3H)-one] | 198 to 199 °C | Active | Active
20 | COc1cc(OC)c2c(=O)[nH]c(-c3cc(C)c(OCCN4C(=O)CN(C(C)C)C4=O)c(C)c3)nc2c1 [3-(2-(4-(5,7-Dimethoxy-4-oxo-3,4-dihydroquinazolin-2-yl)-2,6-dimethylphenoxy)ethyl)-1-isopropylimidazolidine-2,4-dione] | 219 to 221 °C | Active | Active
21 | COc1cc(OC)c2c(=O)[nH]c(-c3cc(C)c(OCCN4C(=O)NC(c5ccccc5)C4=O)c(C)c3)nc2c1 (stereo not drawn) [3-(2-(4-(5,7-Dimethoxy-4-oxo-3,4-dihydroquinazolin-2-yl)-2,6-dimethylphenoxy)ethyl)-5-phenylimidazolidine-2,4-dione] | 219.6 to 221.4 °C | Active | Active
22 | COc1cc(OC)c2c(=O)[nH]c(-c3ccc(CN4C(=O)CNC4=O)cc3)nc2c1 [3-(4-(5,7-Dimethoxy-4-oxo-3,4-dihydroquinazolin-2-yl)benzyl)imidazolidine-2,4-dione] | 317 to 318 °C | Active | Active
23 | Cc1cc(-c2nc3cc(Cl)cc(Cl)c3c(=O)[nH]2)cc(C)c1OCCN1CCCC1 [5,7-Dichloro-2-(3,5-dimethyl-4-(2-(pyrrolidin-1-yl)ethoxy)phenyl)quinazolin-4(3H)-one] | 209 to 210 °C | Active | Active
24 | COc1cc(OCCN2CCCC2)cc(-c2nc3cc(OC)cc(OC)c3c(=O)[nH]2)c1 [5,7-Dimethoxy-2-(3-methoxy-5-(2-(pyrrolidin-1-yl)ethoxy)phenyl)quinazolin-4(3H)-one] | 159 to 160 °C | Active | Active
25 | COc1cc(OC)c2c(=O)[nH]c(-c3ccc(OCCN4CCCC4)c(C)c3)nc2c1 [5,7-Dimethoxy-2-(3-methyl-4-(2-(pyrrolidin-1-yl)ethoxy)phenyl)quinazolin-4(3H)-one] | 230 to 231 °C | Active | Active
